Experimental findings from patent US9492462B2, “Composition for elastin production” (HUMAN MATRIX SCIENCES, LLC, priority 2007, dated 2016) are described below.

Assay type in all cases: cell-based, human
In assay [1] the test system is normal skin fibroblasts. The assay is described as follows: Elastin immunostaining in 7-day cultures of normal skin fibroblasts. On the procedure: (§1) Biological effects of aldosterone and spironolactone were tested in cultures of dermal fibroblasts derived from normal skin, stretch-marked skin and dermal scars derived from Caucasian females, of different ages ranging from 30-38 years old. All fibroblasts were originally isolated by allowing them to migrate out of skin explants and then passaged by trypsinization and maintained in alpha-minimum essential medium supplemented with 20 mM Hepes, 1% antibiotics and antimycotics, 1% L-Glutamate and 2% fetal bovine serum (FBS) as previously described Hinek et al. “Impaired elastic-fiber assembly by fibroblasts from patients with either Morquio B disease or infantile GM1-gangliosidosis is linked to deficiency in the 67-kD spliced variant of beta-galactosidase.” Am J Hum Genet. 2000 July; 67(1):23-36 hereby incorporated by reference in its entirety. In all experiments, consecutive passages 3-4 were tested. Cells were densely plated (50×10^5 cells/dish) to reach confluency and then cultured for 7 days in the presence and absence of different concentrations of (10 nM-1 μM) aldosterone, 2 μM spironolactone, alone or in combinations with other reagents, as described in figure legends.
7-day-old cultures of fibroblasts, which produce abundant ECM, were assessed. All cultures were fixed in cold 100% methanol at −20° C. for 30 min, and then incubated for 1 hour with 2 μg/ml of polyclonal antibody to tropoelastin. Cultures were then incubated for an additional hour with appropriate fluorescein-conjugated secondary antibody (GAR-FITC). Nuclei were counterstained with propidium iodide. Morphometric analysis of five separate cultures in each experimental group, immunostained with antibodies recognizing extracellular matrix components, was performed using a computerized video analysis system (Image-Pro Plus software 3.0, Media Cybernetics, Silver Spring, Md.) as described previously in Hinek et al. “Decreased elastin deposition and high proliferation of fibroblasts from Costello syndrome are related to functional deficiency in the 67-kD elastin-binding protein.” Am J Hum Genet. 2000 March; 66(3):859-72 and Hinek and Wilson, “Impaired elastogenesis in Hurler disease: dermatan sulfate accumulation linked to deficiency in elastin-binding protein and elastic fiber assembly.” Am J Pathol. 2000 March; 156(3):925-38 both of which are hereby incorporated by reference in their entireties.

The subject of assay [2] is skin biopsy explants derived from abdominal dermal scar. The assay is described as follows: Organ culture of dermal scar explants, Movat's pentachrome stain. As to conditions: 5 μM AG1024 alone, with 50 nM aldosterone, or with aldosterone and 2 μM spironolactone. On the procedure:
In order to further test whether aldosterone and spironolactone would penetrate into skin tissue and affect elastogenesis, fragments of normal skin, stretch-marked skin and dermal scars were tested in organ culture system. Skin fragments were cut into multiple 1 mm^2 pieces and placed on top of metal grids immersed in culture medium containing 5% FBS and maintained for 10 days in the presence and absence of and then cultured for 7 days in the presence of 50 nM aldosterone, and 2 μM spironolactone, alone or in combinations, as described in figure legends. The media were changed every second day.
All organ cultures were fixed in 1% buffered formalin and their transversal serial histological sections were stained with Movat's pentachrome as previously described in Hinek et al. “Proteolytic digest derived from bovine Ligamentum Nuchae stimulates deposition of new elastin-enriched matrix in cultures and transplants of human dermal fibroblasts” J Dermatol Sci. September 2005; 39(3):155-66 hereby incorporated by reference in it's entirety. Morphometric analysis was performed as described above. In each analyzed group (three explants from each patient) low-power fields (1 mm^2) of 20 serial sections stained with Movat's pentachrome were analyzed and all structures stained black (elastic fibers) were counted.

The subject of assay [3] is normal skin fibroblasts. The assay is described as follows: [3H]-valine incorporation into insoluble elastin, normal skin fibroblasts. How it is done: as §1
Quintuplicate, 4 day-old cultures of dermal fibroblasts maintained in the presence and absence of indicated reagents were additionally exposed for the 3 following days to 20 μCi [^3H]-valine. At the end of incubation period, the cell layers were extensively washed with PBS, scraped and boiled in 500 μl of 0.1 N NaOH for 30 minutes, to solubilize all matrix components except elastin. The resulting pellets containing the insoluble elastin were then solubilized by boiling in 200 μl of 5.7 N HCl for 1 hour, and the aliquots were mixed in scintillation fluid and counted. Aliquots taken from each culture were also used for DNA determination, according to Rodems et al., using the DNeasy Tissue System from Qiagen. Final results reflecting amounts of metabolically labeled insoluble elastin in individual cultures were normalized per their DNA content, and expressed as CPM/1 μg DNA.

Assay [4] has as its system fibroblasts derived from dermal scar tissue. The assay is described as follows: [3H]-valine incorporation into insoluble elastin, dermal scar fibroblasts. The conditions noted are these: 10 and 100 ng/ml IGF-I vs untreated control. How it is done:
Biological effects of aldosterone and spironolactone were tested in cultures of dermal fibroblasts derived from normal skin, stretch-marked skin and dermal scars derived from Caucasian females, of different ages ranging from 30-38 years old. All fibroblasts were originally isolated by allowing them to migrate out of skin explants and then passaged by trypsinization and maintained in alpha-minimum essential medium supplemented with 20 mM Hepes, 1% antibiotics and antimycotics, 1% L-Glutamate and 2% fetal bovine serum (FBS) as previously described Hinek et al. “Impaired elastic-fiber assembly by fibroblasts from patients with either Morquio B disease or infantile GM1-gangliosidosis is linked to deficiency in the 67-kD spliced variant of beta-galactosidase.” Am J Hum Genet. 2000 July; 67(1):23-36 hereby incorporated by reference in its entirety. […]
Quintuplicate, 4 day-old cultures of dermal fibroblasts maintained in the presence and absence of indicated reagents were additionally exposed for the 3 following days to 20 μCi [^3H]-valine. […] The resulting pellets containing the insoluble elastin were then solubilized by boiling in 200 μl of 5.7 N HCl for 1 hour, and the aliquots were mixed in scintillation fluid and counted. […] Final results reflecting amounts of metabolically labeled insoluble elastin in individual cultures were normalized per their DNA content, and expressed as CPM/1 μg DNA.

Assay [5] shares this test system. Briefly: Elastin immunostaining in 7-day cultures of dermal scar fibroblasts. How it is done: as §1
7-day-old cultures of fibroblasts, which produce abundant ECM, were assessed. All cultures were fixed in cold 100% methanol at −20° C. for 30 min, and then incubated for 1 hour with 2 μg/ml of polyclonal antibody to tropoelastin. Cultures were then incubated for an additional hour with appropriate fluorescein-conjugated secondary antibody (GAR-FITC). Nuclei were counterstained with propidium iodide. Morphometric analysis of five separate cultures in each experimental group, immunostained with antibodies recognizing extracellular matrix components, was performed using a computerized video analysis system (Image-Pro Plus software 3.0, Media Cybernetics, Silver Spring, Md.) as described previously in Hinek et al. “Decreased elastin deposition and high proliferation of fibroblasts from Costello syndrome are related to functional deficiency in the 67-kD elastin-binding protein.” Am J Hum Genet. […]

For `CC(=O)S[C@@H]1CC2=CC(=O)CC[C@]2(C)[C@H]2CC[C@@]3(C)[C@@H](CC[C@@]34CCC(=O)O4)[C@H]12` [spironolactone], in the assay on normal skin fibroblasts [1] (2 μM spironolactone added to 10 nM, 50 nM, 1 μM aldosterone, 7-day cultures), the “elastin deposition in cells treated with increasing concentrations of aldosterone” value was “did not alter elastin deposition”.

Regarding `CC(C)(C)c1cc(C=C(C#N)C#N)cc(Br)c1O` [AG1024], the “elastin deposition in AG1024-treated explants (Movat's pentachrome)” value in assay [2] is listed as “no net increase in elastin deposition”. In addition, the “mature elastin concentration in the presence of IGF-I or aldosterone ([3H]-valine incorporation)” value with normal skin fibroblasts [3] (1 μg/ml αIGF-IR or 5 μM AG1024 with 50 ng/ml IGF-I or 50 nM aldosterone) is “maintained at or below control levels”. Further, the “effect on aldosterone-enhanced deposition of elastin (immunostaining)” value in the assay on normal skin fibroblasts [1] (50 nM aldosterone with 1 μg/ml αIGF-IR or 5 μM AG1024) is listed as “inhibited”. Moreover, the “effect on IGF-I-enhanced deposition of elastin (immunostaining)” value in the assay with normal skin fibroblasts [1] (50 ng/ml IGF-I with 1 μg/ml αIGF-IR or 5 μM AG1024) was “inhibited”.

As for “IGF-I: ligand of insulin growth factor receptor I, added at 10-100 ng/ml”, the “deposition of mature, insoluble elastin ([3H]-valine incorporation)” value in assay [4] is reported as “dose dependent increase”. Further, the “elastin deposition (anti-elastin immunostaining)” value in assay [5] (10 ng/ml IGF-I vs untreated control) is recorded as “increase in elastin depositions”; in assay [5] (100 ng/ml IGF-I vs untreated control), “even greater elastin deposition”. For the same compound, in the assay with normal skin fibroblasts [3] (50 ng/ml IGF-I, 50 nM aldosterone, alone or in combination), the “mature, insoluble elastin concentration ([3H]-valine incorporation)” value is “improved mature elastin concentrations over untreated control”. Moreover, the “deposition of elastin (anti-elastin immunostaining)” value in the assay with normal skin fibroblasts [1] (7-day cultures, 50 ng/ml IGF-I, 50 nM aldosterone, alone or together, vs untreated control) is “enhances the deposition of elastin”.
